Experimental data: paper PMC9669269 (Journal of Computational Chemistry, 2022)

How the values were obtained:
Experiment in all cases: HTRF displacement of biotinylated H4Ac4 peptide
Format in all cases: binding
hBrd4 BD1 = hBrd4 BD1 (Homo sapiens, UniProt O60885)
CaBD2 (CaBdf1 BD2) = molecular target: T1, CaBD2 (CaBdf1 BD2) (Candida albicans, UniProt Q5A4W8)
T1 sequence (Q5A4W8 386-491): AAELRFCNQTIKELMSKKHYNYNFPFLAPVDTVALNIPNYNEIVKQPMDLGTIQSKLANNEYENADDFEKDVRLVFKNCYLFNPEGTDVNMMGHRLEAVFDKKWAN

hBrd4 BD2 = hBrd4 BD2 (Homo sapiens, UniProt O60885)
CaBD1 (CaBdf1 BD1) = molecular target: T2, CaBD1 (CaBdf1 BD1) (Candida albicans, UniProt Q5A4W8)
T2 sequence (Q5A4W8 193-327): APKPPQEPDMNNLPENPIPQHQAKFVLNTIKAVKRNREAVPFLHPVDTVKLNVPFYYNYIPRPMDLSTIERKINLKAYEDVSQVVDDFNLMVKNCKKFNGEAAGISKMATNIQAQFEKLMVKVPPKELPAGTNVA

Row | Structure (SMILES) | IC50 (hBrd4 BD1) [µM] | IC50 (CaBD2 (CaBdf1 BD2)) [µM] | IC50 (hBrd4 BD2) [µM] | IC50 (CaBD1 (CaBdf1 BD1)) [µM]
1 | Cc1ccc(Nc2c(-c3ccc(O)cc3)nc3c(C)cccn23)cc1O [1c, 5‐((2‐(4‐Hydroxyphenyl)‐8‐methylimidazo[1,2‐a]pyridin‐3‐yl)amino)‐2‐methylphenol] | > 20 | 0.78 ± 0.15 | > 20 | > 20
2 | Cc1ccc(Nc2c(-c3ccc(O)cc3)nc3c(I)cccn23)cc1 [1g, 4‐(8‐Iodo‐3‐(p‐tolylamino)imidazo[1,2‐a]pyridin‐2‐yl)phenol] | > 20 | 1.01 ± 0.19 | > 20 | > 20
3 | Cc1cccn2c(Nc3ccc(Br)cc3)c(-c3ccc(O)cc3)nc12 [1i, 4‐(3‐([4‐Bromophenyl]amino)‐8‐methylimidazo[1,2‐a]pyridin‐2‐yl)phenol] | > 20 | 4.35 ± 0.63 | 12.8 ± 3.2 | > 20
4 | Cc1cccn2c(Nc3ccc([N+](=O)[O-])cc3)c(-c3ccc(O)cc3)nc12 [1j, 4‐(8‐Methyl‐3‐([4‐nitrophenyl]amino)imidazo[1,2‐a]pyridin‐2‐yl)phenol] | > 20 | 4.39 ± 1.04 | > 20 | > 20
5 | Cc1ccc(Nc2c(-c3ccc(O)cc3)nc3c(C)cccn23)cc1 [compound 1, imidazopyridine (1)] | > 20 | 3.9 ± 0.35 | > 20 | > 20

The remaining lines, values ahead:

Row | IC50 (hBrd4 BD1) [µM] | IC50 (CaBD2 (CaBdf1 BD2)) [µM] | IC50 (hBrd4 BD2) [µM] | IC50 (CaBD1 (CaBdf1 BD1)) [µM] | Structure (SMILES)
6 | 14.8 ± 6.9 | 6.3 ± 2.78 | 8.7 ± 1.8 | > 20 | Cc1ccc(Nc2c(-c3ccc(O)c(F)c3)nc3c(C)cccn23)cc1 [1a, 2‐Fluoro‐4‐(8‐methyl‐3‐(p‐tolylamino)imidazo[1,2‐a]pyridin‐2‐yl)phenol]
7 | > 20 | 5.22 ± 2.12 | > 20 | > 20 | Cc1ccc(Nc2c(-c3ccc(O)cc3F)nc3c(C)cccn23)cc1 [1b, 3‐Fluoro‐4‐(8‐methyl‐3‐(p‐tolylamino)imidazo[1,2‐a]pyridin‐2‐yl)phenol]
8 | > 20 | 9.74 ± 0.19 | > 20 | > 20 | Cc1ccc(Nc2c(-c3ccc(O)cc3)nc3c(C)cccn23)c(O)c1 [1d, 2‐((2‐(4‐Hydroxyphenyl)‐8‐methylimidazo[1,2‐a]pyridin‐3‐yl)amino)‐5‐methylphenol]
9 | > 20 | 1.5 ± 0.42 | 16 ± 1.2 | > 20 | Cc1ccc(Nc2c(-c3ccc(O)cc3)nc3c(Cl)cccn23)cc1 [1e, 4‐(8‐Chloro‐3‐(p‐tolylamino)imidazo[1,2‐a]pyridin‐2‐yl)phenol]
10 | > 20 | 0.75 ± 0.25 | > 20 | > 20 | Cc1ccc(Nc2c(-c3ccc(O)cc3)nc3c(Br)cccn23)cc1 [1f, 4‐(8‐Bromo‐3‐(p‐tolylamino)imidazo[1,2‐a]pyridin‐2‐yl)phenol]
11 | > 20 | 0.37 ± 0.09 | 2.24 ± 0.65 | > 20 | Cc1cccn2c(Nc3ccc(N)cc3)c(-c3ccc(O)cc3)nc12 [1h, 4‐(3‐([4‐Aminophenyl]amino)‐8‐methylimidazo[1,2‐a]pyridin‐2‐yl)phenol]
